Source: paper PMC6331789, “Phytochemicals from Ruta graveolens Activate TAS2R Bitter Taste Receptors and TRP Channels Involved in Gustation and Nociception” (Molecules, 2015)
Read-outs that look alike come from different tables or passages of the source.

Legend:
Format in all cases: cell-based
TAS2R14 = biological target: T1, TAS2R14 (Homo sapiens, UniProt Q9NYV8); test: In vitro calcium imaging assay on cloned TAS2R14 in transfected HEK293T cells; conditions: for TAS2R14 screening result: single dose, qualitative
T1 construct: expressed in transfected cells; host or cells: HEK293T
T1 sequence (Q9NYV8 1-317): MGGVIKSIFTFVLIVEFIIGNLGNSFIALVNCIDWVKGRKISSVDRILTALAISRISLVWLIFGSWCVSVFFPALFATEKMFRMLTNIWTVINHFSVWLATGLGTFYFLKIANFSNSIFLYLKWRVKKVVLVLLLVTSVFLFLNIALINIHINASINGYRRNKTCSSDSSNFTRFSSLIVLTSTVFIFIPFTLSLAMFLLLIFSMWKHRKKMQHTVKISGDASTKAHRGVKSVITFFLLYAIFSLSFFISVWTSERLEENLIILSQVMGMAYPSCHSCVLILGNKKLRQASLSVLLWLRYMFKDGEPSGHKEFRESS
Description: (§1) Pure phytochemicals were submitted to in vitro assays with a platform of twenty cloned receptors of the bitter taste TAS2R family and four receptors of the TRP family related to the perception of taste and somatosensory sensations. All experiments have been repeated three times, each time with four replicates. […] For simplicity, only those bitter taste receptors having reproducible positive assay, namely TASR10, 14 and 49, are reported (Table 1).
(§2) For those compounds showing activity on one or more receptor(s), the concentration/response curves were plotted and the EC50 calculated.
(§3) For the biological tests, several compounds were purchased as references from different suppliers (Sigma Aldrich, ChromaDex, Irvine, CA, USA, and Tocris Bioscience, Bristol, UK) and dissolved in assay buffer (130 mM NaCl, 5 mM KCl, 1 mM MgCl2, 2 mM CaCl2, 5 mM NaHCO3 and 20 mM HEPES, pH 7.4) or in a mixture of assay buffer and DMSO, never exceeding a final DMSO concentration of 0.5% (v/v) to avoid toxic effects and possible artefacts on transfected cells.
(§4) All human TAS2R and G15Gi1 cDNAs were produced as reported in Bassoli et al. cDNAs for human TRPA1-M5-M8-V1-V4 were cloned into a pcDNA6 expression vector (Invitrogen-Thermo Fisher, Waltham, MA, USA).
(§5) All experiments were performed using HEK293T cells (ATCC).
(§6) For the bitter platform experiments, cells were cultured, transfected and analyzed as previously described.
(§7) For the bitter platform experiments, data analyses were performed as previously described.
(§8) For the calculation of concentration-response curves, responses were calculated as the difference between maximal and minimal relative fluorescence unit (RFU) values in a selected time window (11–60 s) and were normalized to the basal well fluorescence (Time Point 1, before compound injection) in order to compensate for differences in cell density (∆F/F0). All of the experiments have been repeated three times, each time with four replicates. All of the results are averages of at least four replicates. Raw data are available in Supplementary Material, Figures S3–S6.

TAS2R10 = biological target: T2, TAS2R10 (Homo sapiens, UniProt Q9NYW0); test: In vitro calcium imaging assay on cloned TAS2R10 in transfected HEK293T cells; conditions: for TAS2R10 screening result: single dose, qualitative
T2 construct: expressed in transfected cells; host or cells: HEK293T
T2 sequence (Q9NYW0 1-307): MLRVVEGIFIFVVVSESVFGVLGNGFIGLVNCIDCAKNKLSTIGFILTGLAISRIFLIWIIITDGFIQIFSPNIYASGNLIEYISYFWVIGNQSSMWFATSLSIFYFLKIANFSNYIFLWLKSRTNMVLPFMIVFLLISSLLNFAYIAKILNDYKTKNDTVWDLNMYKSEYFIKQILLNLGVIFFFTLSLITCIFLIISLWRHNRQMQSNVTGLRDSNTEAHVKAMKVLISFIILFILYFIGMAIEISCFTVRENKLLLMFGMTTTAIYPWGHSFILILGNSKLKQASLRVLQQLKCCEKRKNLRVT
Description: as §1, §2, §3, §4, §5, §6, §7, §8

TRPA1 = biological target: T3, TRPA1 (Homo sapiens, UniProt O75762); test: In vitro Fluo8-NW calcium assay (FLIPR) on HEK293T cells stably overexpressing TRPA1; conditions: for TRPA1 screening result: single dose, qualitative
T3 construct: expressed in transfected cells
Description: Pure phytochemicals were submitted to in vitro assays with a platform of twenty cloned receptors of the bitter taste TAS2R family and four receptors of the TRP family related to the perception of taste and somatosensory sensations. All experiments have been repeated three times, each time with four replicates.
as §2, §3, §4, §5
(§9) For TRP platform experiments, cells were cultured in MEM/EBSS medium (ECB2071L EuroClone, Milan, Italy) plus 10% (v/v) fetal bovine serum (FBS) (26400-044 Gibco, Karlsruhe, Germany) and 1% (v/v) Pen/Strep 10K/10K stock (17-602E Lonza, Basel, Switzerland). Stable cell lines were generated overexpressing each TRP channel, and clones were selected with 500 µg/mL of G418 (ant-gn-5 Invivogen, Karlsruhe, Germany). To analyze TRP receptor responses, cells were plated at a concentration of 20,000 cells/well in 384-well plates (GR-4330 Twin Helix srl, Milan, Italy). Cellular responses were measured 24 h after seeding.
(§10) For TRPA1-M8-V1-V4 experiments, a solution of Fluo8-NW calcium-sensitive dye (36316 AAT BioQuest, Sunnyvale, CA, USA) was prepared using the assaybuffer and diluting the kit components 1:2 according to the manufacturer’s instructions. Twenty-four hours after seeding, cells were incubated one hour at RT, loaded with 40 µL of Fluo8-NW solution for each well and incubated again for one hour at RT before data acquisition.
(§11) For TRPM5 experiments, cells were loaded 24 h after seeding with a Membrane Potential Dye (R8034 MDC) solution in assay buffer according to the manufacturer’s instructions and incubated at 37 °C for 1 h before acquisition. All experiments were performed using a fluorometric imaging plate reader (FLIPR^TETRA, Molecular Devices equipped with ICCD Camera from Stanford Photonics, INC, (Palo Alto, CA, USA) and kinetics were visualized with Molecular Devices’ Screenworks 3.0 (Sunnyvale, CA, USA).
as §8

TRPM8 = biological target: T4, TRPM8 (Homo sapiens, UniProt Q7Z2W7); test: In vitro Fluo8-NW calcium assay (FLIPR) on HEK293T cells stably overexpressing TRPM8; conditions: for TRPM8 screening result: single dose, qualitative
T4 construct: expressed in transfected cells
Description: as §1, §2, §3, §4, §5, §9, §10, §11, §8

[1] = concentration/response curve, values with ≥ estimated, curve did not saturate, read-out: EC50 TAS2R14
[2] = concentration/response curve, values with ≥ estimated, curve did not saturate, read-out: EC50 TAS2R10

T3 sequence (O75762 whole entry): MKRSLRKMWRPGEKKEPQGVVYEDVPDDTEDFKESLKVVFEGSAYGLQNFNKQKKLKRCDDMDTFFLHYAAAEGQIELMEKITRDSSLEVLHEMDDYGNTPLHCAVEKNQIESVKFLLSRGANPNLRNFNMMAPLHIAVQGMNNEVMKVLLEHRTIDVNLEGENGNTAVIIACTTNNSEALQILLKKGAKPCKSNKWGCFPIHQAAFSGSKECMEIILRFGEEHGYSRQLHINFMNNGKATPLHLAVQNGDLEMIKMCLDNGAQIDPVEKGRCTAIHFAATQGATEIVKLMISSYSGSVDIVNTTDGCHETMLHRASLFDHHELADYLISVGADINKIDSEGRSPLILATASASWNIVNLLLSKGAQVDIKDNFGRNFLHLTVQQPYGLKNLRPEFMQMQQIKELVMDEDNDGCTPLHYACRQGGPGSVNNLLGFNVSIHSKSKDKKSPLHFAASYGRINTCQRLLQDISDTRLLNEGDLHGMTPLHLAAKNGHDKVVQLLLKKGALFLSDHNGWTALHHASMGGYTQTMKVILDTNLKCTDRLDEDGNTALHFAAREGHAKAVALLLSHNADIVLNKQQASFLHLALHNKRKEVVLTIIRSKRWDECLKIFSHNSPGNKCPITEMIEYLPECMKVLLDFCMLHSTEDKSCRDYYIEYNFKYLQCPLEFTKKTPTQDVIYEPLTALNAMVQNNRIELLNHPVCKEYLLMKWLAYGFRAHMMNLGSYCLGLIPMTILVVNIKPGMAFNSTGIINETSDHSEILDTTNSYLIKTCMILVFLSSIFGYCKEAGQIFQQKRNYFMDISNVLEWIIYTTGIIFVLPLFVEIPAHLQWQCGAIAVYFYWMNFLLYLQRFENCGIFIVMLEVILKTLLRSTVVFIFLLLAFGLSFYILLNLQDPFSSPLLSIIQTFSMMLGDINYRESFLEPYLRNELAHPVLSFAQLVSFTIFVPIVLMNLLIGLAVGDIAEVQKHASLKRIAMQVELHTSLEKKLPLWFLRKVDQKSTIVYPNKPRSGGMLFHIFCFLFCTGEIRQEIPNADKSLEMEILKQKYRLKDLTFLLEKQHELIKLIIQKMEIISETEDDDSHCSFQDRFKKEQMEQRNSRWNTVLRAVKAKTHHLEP
T4 sequence (Q7Z2W7 whole entry): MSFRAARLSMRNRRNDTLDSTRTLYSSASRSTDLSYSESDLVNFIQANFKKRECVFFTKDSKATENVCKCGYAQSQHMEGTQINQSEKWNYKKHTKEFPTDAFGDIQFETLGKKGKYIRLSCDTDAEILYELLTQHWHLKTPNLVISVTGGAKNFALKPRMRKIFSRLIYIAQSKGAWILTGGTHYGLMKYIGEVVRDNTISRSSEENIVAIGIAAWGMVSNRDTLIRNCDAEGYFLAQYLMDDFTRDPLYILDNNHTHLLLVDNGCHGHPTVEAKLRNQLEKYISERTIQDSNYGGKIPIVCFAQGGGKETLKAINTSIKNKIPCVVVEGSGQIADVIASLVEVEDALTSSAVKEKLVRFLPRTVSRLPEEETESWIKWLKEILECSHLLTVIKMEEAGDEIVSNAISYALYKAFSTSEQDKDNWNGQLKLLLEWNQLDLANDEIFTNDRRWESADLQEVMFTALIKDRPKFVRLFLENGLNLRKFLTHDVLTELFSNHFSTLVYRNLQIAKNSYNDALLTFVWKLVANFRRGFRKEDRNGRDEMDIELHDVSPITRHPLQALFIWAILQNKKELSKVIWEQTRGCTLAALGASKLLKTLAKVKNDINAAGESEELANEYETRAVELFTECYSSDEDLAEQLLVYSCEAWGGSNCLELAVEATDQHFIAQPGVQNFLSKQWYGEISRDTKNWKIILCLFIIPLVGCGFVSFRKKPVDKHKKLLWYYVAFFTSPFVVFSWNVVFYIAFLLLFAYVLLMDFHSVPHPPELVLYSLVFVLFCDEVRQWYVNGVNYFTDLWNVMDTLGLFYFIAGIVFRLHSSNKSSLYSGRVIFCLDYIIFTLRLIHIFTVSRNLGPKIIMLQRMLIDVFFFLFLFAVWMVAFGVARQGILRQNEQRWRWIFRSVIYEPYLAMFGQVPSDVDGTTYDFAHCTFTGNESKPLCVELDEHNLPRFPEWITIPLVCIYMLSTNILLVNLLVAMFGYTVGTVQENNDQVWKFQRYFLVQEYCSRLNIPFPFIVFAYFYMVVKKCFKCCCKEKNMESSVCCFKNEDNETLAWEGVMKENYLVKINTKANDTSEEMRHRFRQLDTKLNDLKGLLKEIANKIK

Row | SMILES | EC50 (TAS2R14) | TAS2R14 screening result (TAS2R14) | Activity on TAS2R10 (in words) (TAS2R10) | EC50 (TAS2R10) | TAS2R10 screening result (TAS2R10) | Activity on TRPA1 (in words) (TRPA1) | EC50 (TRPA1; concentration/response curve, values with ≥ estimated, n.d. = non detectable, read-out: EC50 TRPA1) | TRPA1 screening result (TRPA1) | TRPM8 screening result (TRPM8) | Activity on TAS2R14 (in words) (TAS2R14) | EC50 (TAS2R14; [1]) | EC50 (TAS2R10; [2]) | EC50 (TRPA1) | Activity on TRPM8 (in words) (TRPM8)
1 | COc1c2occc2cc2ccc(=O)oc12 [Compound 4, xanthotoxin] | ≥ 10.8 µM | + | responded | ≥ 20.6 µM | + | agonists | ≥ 19.7 µM | + | − |  |  |  |  | 
2 | COc1c2ccoc2c(OC)c2oc(=O)ccc12 [Compound 5, isopimpinellin] |  | + |  |  | ++ | agonists |  | + | − | responded | 11.1 µM | 12 µM | ≥ 22.8 µM | 
3 | CCCCCCCCCC(C)=O [Compound 9, 2-undecanone] |  | − |  |  | − |  |  | − | − |  |  |  |  | 
4 | COc1ccc2c(OC)c3ccoc3nc2c1OC [Compound 8, skimmianine] |  | + |  |  | − |  |  | − | − | selectively activate | ≥ 15.8 µM |  |  | 
5 | CCCCCCCC(C)=O [Compound 10, 2-nonanone] |  | − |  |  | − |  |  | − | − |  |  |  |  | 
6 | C[C@@H]1O[C@@H](OC[C@H]2O[C@@H](Oc3c(-c4ccc(O)c(O)c4)oc4cc(O)cc(O)c4c3=O)[C@H](O)[C@@H](O)[C@@H]2O)[C@H](O)[C@H](O)[C@H]1O [Compound 1, rutin] |  | − |  |  | − |  |  | − | − |  |  |  |  | 
7 | COc1cc2nc3occc3c(OC)c2cc1OC [Compound 7, kokusaginin] |  | − |  |  | − |  |  | − | − |  |  |  |  | 
8 | C=CC(C)(C)c1cc2cc3c(cc2oc1=O)OC(C(C)(C)OC(C)=O)C3 (stereo not shown) [Compound 2, rutamarin] |  | − |  |  | − | did not activate |  | − |  |  |  |  |  | strong antagonist
9 | COc1c2ccoc2cc2oc(=O)ccc12 [Compound 3, bergapten] |  | − | selective and strong agonist |  | +++ |  |  | − | − | inactive |  | 2.8 µM |  | 
